According to US7786141B2 (Vertex Pharmaceuticals Incorporated, priority 2004, dated 2010):
Where two headings read alike, the source gives them in different places.

What was measured:
[1] = target: T1, M4 muscarinic receptor (Homo sapiens, UniProt P08173); test: Functional mobilization of intracellular calcium (FLIPR) in M4-CHO cells; type: cell-based
T1 construct: expressed in transfected cells; host or cells: CHO (M4-CHO)
T1 sequence (P08173 1-479): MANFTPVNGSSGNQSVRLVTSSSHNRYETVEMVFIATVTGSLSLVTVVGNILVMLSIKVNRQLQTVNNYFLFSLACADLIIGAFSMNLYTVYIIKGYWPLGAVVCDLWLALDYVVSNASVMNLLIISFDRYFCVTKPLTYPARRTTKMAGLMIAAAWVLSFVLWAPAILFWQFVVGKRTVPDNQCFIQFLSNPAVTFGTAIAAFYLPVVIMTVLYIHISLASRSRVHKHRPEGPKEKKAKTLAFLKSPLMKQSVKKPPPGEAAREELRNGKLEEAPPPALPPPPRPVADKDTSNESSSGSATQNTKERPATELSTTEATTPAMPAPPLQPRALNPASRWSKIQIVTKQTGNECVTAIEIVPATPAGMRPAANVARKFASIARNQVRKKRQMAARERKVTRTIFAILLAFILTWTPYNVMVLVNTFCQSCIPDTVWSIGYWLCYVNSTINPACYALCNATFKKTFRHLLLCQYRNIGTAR
Outline: (§1)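 Two modes: direct compound addition for agonism, or 15 min compound pre-incubation (or co-application) before carbachol at EC80 for inhibition. Calcium signal from Fluo-3 AM or Calcium 3 dye in CHO cells, 1 mM probenecid, pH 7.4, read 60 sec at 488/540 nm; DMSO 0.5% final.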

[2] = target: T2, M1 muscarinic receptor (Homo sapiens, UniProt P11229); test: Functional mobilization of intracellular calcium (FLIPR) in M1-CHO cells; type: cell-based
T2 construct: expressed in transfected cells; host or cells: CHO (M1-CHO)
T2 sequence (P11229 1-460): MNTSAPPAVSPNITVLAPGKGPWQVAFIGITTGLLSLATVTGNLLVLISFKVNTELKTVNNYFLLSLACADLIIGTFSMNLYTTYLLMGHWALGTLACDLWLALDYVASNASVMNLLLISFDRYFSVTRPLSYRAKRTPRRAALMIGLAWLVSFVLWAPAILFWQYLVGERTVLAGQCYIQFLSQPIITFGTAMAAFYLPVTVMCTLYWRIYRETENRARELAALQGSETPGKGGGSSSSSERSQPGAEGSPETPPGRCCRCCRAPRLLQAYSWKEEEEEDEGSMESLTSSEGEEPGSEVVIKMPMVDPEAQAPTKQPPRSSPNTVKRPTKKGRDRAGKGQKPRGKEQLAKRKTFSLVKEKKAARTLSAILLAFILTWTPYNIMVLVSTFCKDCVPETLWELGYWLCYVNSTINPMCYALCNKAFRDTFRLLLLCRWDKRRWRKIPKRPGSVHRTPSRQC
Outline: as §1

[3] = M4 receptor, calcium mobilization
[4] = M4 receptor, calcium mobilization, read-out: M4 Efficacy
[5] = M1 receptor, calcium mobilization
[6] = M1 receptor, calcium mobilization, read-out: M1 Efficacy
[7] = 100% efficacy is the maximum response obtained with the Carbachol control, Table 5
[8] = M4-CHO cells, calcium mobilization (FLIPR)
[9] = M4-CHO cells, calcium mobilization (FLIPR), read-out: M4 Efficacy
[10] = M1-CHO cells, calcium mobilization (FLIPR)
[11] = M1-CHO cells, calcium mobilization (FLIPR), read-out: M1 Efficacy
[12] = Table 4, 100% efficacy is the maximum response obtained with the Carbachol control
[13] = Table 4, M4 receptor, calcium mobilization (FLIPR)
[14] = Table 4, M1 receptor, calcium mobilization (FLIPR)
[15] = Table 4, modulating M4 receptor
[16] = Table 4, modulating M1 receptor

SMILES	M4 Activity [1, 3]	Emax [1, 4] [%]	M1 Activity [2, 5]	Emax [2, 6] [%]	Emax [1, 12] [%]	Emax [2, 12] [%]	other results
COCCOC(=O)N1CC2(CCN(C3CC4CCC(C3)N4C(=O)OC3CCC3)CC2)c2cc(F)ccc21 (stereo not shown) [compound 195]	x (activity was measured to be greater than 1.0 μM)	< 65	xx (activity was measured to be between 0.1 μM and 1.0 μM)	< 65	–	–	–
COc1cccc(N2CCC(N3CCC4(CC3)CN(C(=O)N(C)C)c3ccc(F)cc34)CC2)c1 [compound 1028]	–	–	–	–	–	–	Emax [1, 7]: 25 to 100%; EC50 ([1]; CHO cells expressing M4, calcium mobilization, Table 5): < 2 µM; Emax [2, 7]: 25 to 100%; EC50 ([2]; CHO cells expressing M1, calcium mobilization, Table 5): 2 to 10 µM
CCOC(=O)N1CCC(N2CCC3(CC2)CN(C(=O)c2ccc4c(c2)OCO4)c2ccc(F)cc23)CC1 [compound 401]	–	–	–	–	–	–	EC50 [1, 8]: > 1 µM; Emax [1, 9]: < 65%; EC50 [2, 10]: < 0.1 µM; Emax [2, 11]: 65 to 85%
CC(=O)N[C@H]1CC2(CCN(CC3CCCC3)CC2)c2ccccc21 [compound 934]	–	–	–	–	25 to 100	25 to 100	M4 Activity [1, 13]: xxx (activity was measured to be less than 2.0 μM); M1 Activity [2, 14]: xx (activity was measured to be between 2.0 μM and 5.0 μM)
O=C(N[C@H]1CCC2(CCN(C3CCCCCC3)CC2)c2ccccc21)C1CC1 [compound 663]	–	–	–	–	25 to 100	25 to 100	M4 Activity [1, 15]: xxx (activity was measured to be less than 2.0 μM); M1 Activity [2, 16]: xxx (activity was measured to be less than 2.0 μM)
CCOC1CCCCC1N1CCC2(CC1)CN(C(C)=O)c1ccc(F)cc12 (stereo not shown) [compound 849]	–	–	–	–	< 25	< 25	M4 Activity [1, 13]: x (activity was measured to be greater than 5.0 μM); M1 Activity [2, 14]: x (activity was measured to be greater than 5.0 μM)
CC(=O)N1CC2(CCN(CC3CCN(C(=O)O[C@@H]4CCOC4)CC3)CC2)c2cc(C)ccc21 [compound 403]	–	–	–	–	–	–	EC50 [1, 8]: > 1 µM; Emax [1, 9]: < 65%; EC50 [2, 10]: < 0.1 µM; Emax [2, 11]: 65 to 85%
CC(=O)N[C@H]1CCC2(CCN(C[C@H]3C[C@H]4C=CC3C4)CC2)c2ccccc21 [compound 652]	–	–	–	–	25 to 100	25 to 100	M4 Activity [1, 15]: xxx (activity was measured to be less than 2.0 μM); M1 Activity [2, 16]: xxx (activity was measured to be less than 2.0 μM)
CC(=O)N1CC2(CCN(C3CCN(C(=O)OCC(C)(C)C)CC3)CC2)c2ccccc21 [compound 496]	–	–	–	–	< 25	< 25	M4 Activity [1, 15]: x (activity was measured to be greater than 5.0 μM); M1 Activity [2, 16]: x (activity was measured to be greater than 5.0 μM)
O=C(OC1CCC1)N1C2CCC1CC(N1CCC3(CC1)COc1ccc(F)cc13)C2 (stereo not shown) [compound 123]	x (activity was measured to be greater than 1.0 μM)	< 65	xx (activity was measured to be between 0.1 μM and 1.0 μM)	< 65	–	–	–
Fc1ccc2c(c1)C1(CCN(C[C@H]3C[C@H]4CC[C@H]3C4)CC1)CO2 [compound 207]	x (activity was measured to be greater than 1.0 μM)	< 65	xx (activity was measured to be between 0.1 μM and 1.0 μM)	65 to 85	–	–	–
Cc1ccc2c(c1)C1(CCN(C3CC4CCC3C4)CC1)CN2C(=O)OC(C)(C)C (stereo not shown) [compound 116]	xx (activity was measured to be between 0.1 μM and 1.0 μM)	< 65	xxx (activity was measured to be less than 0.1 μM)	65 to 85	–	–	–
CC(=O)NC1CCC2(CCN(CCC3CCN(C(=O)N(C)C)CC3)CC2)c2ccccc21 (stereo not shown) [compound 999]	–	–	–	–	< 25	25 to 100	M4 Activity [1, 13]: x (activity was measured to be greater than 5.0 μM); M1 Activity [2, 14]: xxx (activity was measured to be less than 2.0 μM)
